Experiments:
[1] = system: human adrenal gland section expressing aldosterone-producing adenoma; assay: In vitro autoradiography using human adrenal adenoma; assay type: binding; settings: section of FIG. 17(b)
How it was run: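 Autoradiography readout: PSL in equal-sized ROIs over adenoma (B2) and normal adrenal cortex (B1), expressed as B2/B1 and decay-corrected using half-life, applied activity and plate contact time. Tissue was surgically excised human adrenal, frozen and cut at 7 μm, incubated 10 min with 5-33 kBq/mL tracer in BSA-containing PBS, then imaged after 16-20 h exposure.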

[2] = Plasma stability evaluation (TLC analysis); assay type: in vitro ADME; settings: 37° C., 60 minutes, TLC analysis
How it was run: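 TLC analysis, using each compound's synthesis conditions, judged stability after methanol was added and samples were centrifuged to remove protein. Beforehand, each tracer had spent 60 minutes at 37° C in pooled heparinized normal human plasma.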

[3] = In vivo kinetics experiment (radioactivity distribution); parameters: species or system Wistar male rat; settings: rat i.v., mean ± SD
How it was run: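 Tissue radioactivity (% ID/g) and adrenal-to-blood, liver, kidney, small intestine, muscle and fat ratios determined at 10, 30 and 60 min post-dose. Tracers (approximately 1 to 3.7 MBq, saline with 1 w/v % ascorbic acid) injected i.v. into caudal vein of anesthetized 9-week male Wistar rats; organs excised, weighed, counted.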

CC(C)n1c(-c2cncc(Cn3ccnc3)c2)nc2ccc([123I])cc21 [[^123I] 606, 2-[5-{(1H-imidazol-1-yl)methyl}pyridin-3-yl]-6-[^123I]iodo-1-isopropyl-1H-benzo[d]imidazole]
B2/B1 accumulation ratio [1]: 0.87 | B2 (PSL value, aldosterone-producing adenoma) ([1]; site 71b): 1655 | B1 (PSL value, normal adrenal cortex) ([1]; site 72b): 1913 | Radiochemical purity after incubation in human plasma [2]: 88% | Adrenal gland/blood ratio of radioactivity accumulation ([3]; 10 min after administration): 85.09 ± 27.52 | Adrenal gland/fat ratio of radioactivity accumulation ([3]; 10 min after administration): 100.88 ± 26.65 | Adrenal gland/kidney ratio of radioactivity accumulation ([3]; 10 min after administration): 10.11 ± 2.69 | Adrenal gland/liver ratio of radioactivity accumulation ([3]; 10 min after administration): 4.02 ± 1.20 | Adrenal gland/muscle ratio of radioactivity accumulation ([3]; 10 min after administration): 57.42 ± 9.23 | Adrenal gland/small intestine ratio of radioactivity accumulation ([3]; 10 min after administration): 9.70 ± 3.04 | Radioactivity distribution Adrenal gland ([3]; 10 min after administration): 13.01 ± 3.75 % ID/g | Radioactivity distribution Bladder (including urine) ([3]; 10 min after administration): 0.27 ± 0.01 % ID/g | Radioactivity distribution Blood ([3]; 10 min after administration): 0.15 ± 0.01 % ID/g | Radioactivity distribution Fat ([3]; 10 min after administration): 0.13 ± 0.01 % ID/g | Radioactivity distribution Femur ([3]; 10 min after administration): 0.59 ± 0.02 % ID/g | Radioactivity distribution Heart ([3]; 10 min after administration): 0.56 ± 0.04 % ID/g | Radioactivity distribution Kidney ([3]; 10 min after administration): 1.29 ± 0.11 % ID/g | Radioactivity distribution Large intestine ([3]; 10 min after administration): 0.17 ± 0.00 % ID/g | Radioactivity distribution Liver ([3]; 10 min after administration): 3.24 ± 0.05 % ID/g | Radioactivity distribution Lung ([3]; 10 min after administration): 0.86 ± 0.07 % ID/g | Radioactivity distribution Muscle (lower limbs) ([3]; 10 min after administration): 0.22 ± 0.04 % ID/g | Radioactivity distribution Remaining whole body ([3]; 10 min after administration): 0.29 ± 0.02 % ID/g | Radioactivity distribution Small intestine ([3]; 10 min after administration): 1.35 ± 0.04 % ID/g | Radioactivity distribution Spleen ([3]; 10 min after administration): 4.55 ± 0.41 % ID/g | Radioactivity distribution Stomach ([3]; 10 min after administration): 0.75 ± 0.09 % ID/g | Radioactivity distribution Testis ([3]; 10 min after administration): 0.08 ± 0.00 % ID/g | Radioactivity distribution Whole brain ([3]; 10 min after administration): 0.03 ± 0.00 % ID/g | Adrenal gland/blood ratio of radioactivity accumulation ([3]; 30 min after administration): 151.28 ± 30.77 | Adrenal gland/fat ratio of radioactivity accumulation ([3]; 30 min after administration): 172.63 ± 42.67 | Adrenal gland/kidney ratio of radioactivity accumulation ([3]; 30 min after administration): 20.98 ± 3.60 | Adrenal gland/liver ratio of radioactivity accumulation ([3]; 30 min after administration): 8.21 ± 1.88 | Adrenal gland/muscle ratio of radioactivity accumulation ([3]; 30 min after administration): 130.86 ± 25.55 | Adrenal gland/small intestine ratio of radioactivity accumulation ([3]; 30 min after administration): 7.82 ± 2.11 | Radioactivity distribution Adrenal gland ([3]; 30 min after administration): 21.23 ± 4.43 % ID/g | Radioactivity distribution Bladder (including urine) ([3]; 30 min after administration): 1.17 ± 0.36 % ID/g | Radioactivity distribution Blood ([3]; 30 min after administration): 0.14 ± 0.00 % ID/g | Radioactivity distribution Fat ([3]; 30 min after administration): 0.12 ± 0.01 % ID/g | Radioactivity distribution Femur ([3]; 30 min after administration): 0.50 ± 0.01 % ID/g | Radioactivity distribution Heart ([3]; 30 min after administration): 0.44 ± 0.01 % ID/g | Radioactivity distribution Kidney ([3]; 30 min after administration): 1.01 ± 0.04 % ID/g | Radioactivity distribution Large intestine ([3]; 30 min after administration): 0.23 ± 0.01 % ID/g | Radioactivity distribution Liver ([3]; 30 min after administration): 2.59 ± 0.07 % ID/g | Radioactivity distribution Lung ([3]; 30 min after administration): 0.65 ± 0.03 % ID/g | Radioactivity distribution Muscle (lower limbs) ([3]; 30 min after administration): 0.16 ± 0.01 % ID/g | Radioactivity distribution Remaining whole body ([3]; 30 min after administration): 0.24 ± 0.01 % ID/g | Radioactivity distribution Small intestine ([3]; 30 min after administration): 2.75 ± 0.21 % ID/g | Radioactivity distribution Spleen ([3]; 30 min after administration): 3.80 ± 0.26 % ID/g | Radioactivity distribution Stomach ([3]; 30 min after administration): 1.66 ± 0.35 % ID/g | Radioactivity distribution Testis ([3]; 30 min after administration): 0.11 ± 0.01 % ID/g | Radioactivity distribution Whole brain ([3]; 30 min after administration): 0.03 ± 0.00 % ID/g | Adrenal gland/blood ratio of radioactivity accumulation ([3]; 60 min after administration): 161.94 ± 14.16 | Adrenal gland/fat ratio of radioactivity accumulation ([3]; 60 min after administration): 229.99 ± 79.47 | Adrenal gland/kidney ratio of radioactivity accumulation ([3]; 60 min after administration): 22.62 ± 2.40 | Adrenal gland/liver ratio of radioactivity accumulation ([3]; 60 min after administration): 8.81 ± 1.68 | Adrenal gland/muscle ratio of radioactivity accumulation ([3]; 60 min after administration): 168.08 ± 24.28 | Adrenal gland/small intestine ratio of radioactivity accumulation ([3]; 60 min after administration): 5.20 ± 0.46 | Radioactivity distribution Adrenal gland ([3]; 60 min after administration): 19.67 ± 3.42 % ID/g | Radioactivity distribution Bladder (including urine) ([3]; 60 min after administration): 2.06 ± 0.40 % ID/g | Radioactivity distribution Blood ([3]; 60 min after administration): 0.12 ± 0.01 % ID/g | Radioactivity distribution Fat ([3]; 60 min after administration): 0.09 ± 0.02 % ID/g | Radioactivity distribution Femur ([3]; 60 min after administration): 0.62 ± 0.04 % ID/g | Radioactivity distribution Heart ([3]; 60 min after administration): 0.40 ± 0.02 % ID/g | Radioactivity distribution Kidney ([3]; 60 min after administration): 0.87 ± 0.07 % ID/g | Radioactivity distribution Large intestine ([3]; 60 min after administration): 0.35 ± 0.06 % ID/g | Radioactivity distribution Liver ([3]; 60 min after administration): 2.24 ± 0.16 % ID/g | Radioactivity distribution Lung ([3]; 60 min after administration): 0.60 ± 0.03 % ID/g | Radioactivity distribution Muscle (lower limbs) ([3]; 60 min after administration): 0.12 ± 0.01 % ID/g | Radioactivity distribution Remaining whole body ([3]; 60 min after administration): 0.22 ± 0.01 % ID/g | Radioactivity distribution Small intestine ([3]; 60 min after administration): 3.77 ± 0.38 % ID/g | Radioactivity distribution Spleen ([3]; 60 min after administration): 3.05 ± 0.35 % ID/g | Radioactivity distribution Stomach ([3]; 60 min after administration): 1.90 ± 0.35 % ID/g | Radioactivity distribution Testis ([3]; 60 min after administration): 0.16 ± 0.03 % ID/g | Radioactivity distribution Whole brain ([3]; 60 min after administration): 0.03 ± 0.00 % ID/g
